# Experimental data taken from patent US20120270929A1, “MODULATION OF TTC39 EXPRESSION TO INCREASE HDL” (ISIS Pharmaceuticals, Inc., priority 2009, published 2012).
# Oligonucleotides are written 5' to 3', each unit as a sugar letter and its base; * is a phosphorothioate linkage, no mark a phosphodiester; rarer units and linkages stand in square brackets, end groups in braces. Plain capitals give the bases only. e = 2'-O-(2-methoxyethyl) (MOE); [5mC] = 5-methylcytosine; d = 2'-deoxy (DNA)
# How the values were obtained:
# murine TTC39C mRNA [1] = test: Dose-dependent antisense inhibition of murine TTC39C in mouse primary hepatocytes; format: cell-based; conditions: electroporation, ~16 h; for IC50: mouse primary hepatocytes
# Procedure: Thirty antisense oligonucleotides were selected from the study described in Example 8 and further tested at various doses in mouse primary hepatocytes. Cells were plated at a density of 30,000 cells per well and transfected using electroporation with 500 nM, 1,000 nM, 2,000 nM, 4,000 nM, and 8,000 nM concentrations of antisense oligonucleotide, as specified in Table 30. After a treatment period of approximately 16 hours, RNA was isolated from the cells and TTC39C mRNA levels were measured by quantitative real-time PCR. Murine primer probe set RTS3266 was used to measure mRNA levels. TTC39C mRNA levels were adjusted according to total RNA content, as measured by RIBOGREEN®. Results are presented as percent inhibition of TTC39C, relative to untreated control cells.
# murine TTC39C mRNA [2] = test: Antisense inhibition of mouse TTC39C in mouse primary hepatocytes, single dose; format: cell-based; conditions: 8,000 nM antisense oligonucleotide, electroporation, approximately 24 hours, TTC39C mRNA by real-time PCR (RTS3266), relative to untreated control cells
# Procedure: Antisense oligonucleotides were designed targeting a TTC39C nucleic acid and were tested for their effects on TTC39C mRNA in vitro. Cultured mouse primary hepatocytes at a density of 30,000 cells per well were transfected by electroporation with 8,000 nM antisense oligonucleotide. After a treatment period of approximately 24 hours, RNA was isolated from the cells and TTC39C mRNA levels were measured by quantitative real-time PCR. Mouse primer probe set RTS3266 (forward sequence […], designated herein as SEQ ID NO: 140; reverse sequence […], designated herein as SEQ ID NO: 141; probe sequence […], designated herein as SEQ ID NO: 142). TTC39C mRNA levels were adjusted according to total RNA content, as measured by RIBOGREEN®. Results are presented as percent inhibition of TTC39C, relative to untreated control cells.
# The chimeric antisense oligonucleotides targeting TTC39C were designed as 5-10-5 MOE gapmers. The gapmers are 20 nucleotides in length, wherein the central gap segment is comprised of ten 2′-deoxynucleotides and is flanked on both sides (in the 5′ and 3′ directions) by wings comprising five nucleotides each. Each nucleotide in the 5′ wing segment and each nucleotide in the 3′ wing segment has a 2′-MOE modification. The internucleoside linkages throughout each gapmer are phosphorothioate (P═S) linkages. All cytosine residues throughout each gapmer are 5-methylcytosines. “Mouse Target start site” indicates the 5′-most nucleotide to which the gapmer is targeted in the mouse gene sequence.
Substance,percent inhibition of TTC39C mRNA (murine TTC39C mRNA [1]; 500.0 nM) [%],percent inhibition of TTC39C mRNA (murine TTC39C mRNA [1]; 1000.0 nM) [%],percent inhibition of TTC39C mRNA (murine TTC39C mRNA [1]; 2000.0 nM) [%],percent inhibition of TTC39C mRNA (murine TTC39C mRNA [1]; 4000.0 nM) [%],percent inhibition of TTC39C mRNA (murine TTC39C mRNA [1]; 8000.0 nM) [%],IC50 (murine TTC39C mRNA [1]) [nM],% inhibition (murine TTC39C mRNA [2]) [%]
ISIS 474596: 5-10-5 MOE gapmer antisense oligonucleotide targeting murine TTC39C (antisense e[5mC]*eG*eA*eT*eT*dA*d[5mC]*dA*d[5mC]*d[5mC]*dA*dG*d[5mC]*d[5mC]*dT*e[5mC]*eT*eT*e[5mC]*eA),47,65,62,90,96,600,93
ISIS 474598: 5-10-5 MOE gapmer antisense oligonucleotide targeting murine TTC39C (antisense e[5mC]*e[5mC]*e[5mC]*eA*e[5mC]*d[5mC]*dT*dT*dT*dT*dA*dT*dG*dT*dA*eG*eG*e[5mC]*e[5mC]*eG),40,37,60,83,94,1100,94
ISIS 474599: 5-10-5 MOE gapmer antisense oligonucleotide targeting murine TTC39C (antisense e[5mC]*eG*eT*eT*eG*dA*dT*dG*dT*d[5mC]*d[5mC]*dA*d[5mC]*dA*dT*eA*eG*e[5mC]*eA*e[5mC]),36,59,60,84,92,900,92
ISIS 474600: 5-10-5 MOE gapmer antisense oligonucleotide targeting murine TTC39C (antisense e[5mC]*e[5mC]*eA*eA*eG*dG*dG*d[5mC]*dT*d[5mC]*dT*dT*d[5mC]*d[5mC]*dG*eT*e[5mC]*eA*eG*e[5mC]),47,57,66,86,89,600,90
ISIS 474601: 5-10-5 MOE gapmer antisense oligonucleotide targeting murine TTC39C (antisense eG*eG*e[5mC]*e[5mC]*eA*dT*dA*dT*d[5mC]*d[5mC]*dA*dA*dA*dG*d[5mC]*eT*e[5mC]*eA*e[5mC]*eA),36,49,65,87,92,1000,91
ISIS 474604: 5-10-5 MOE gapmer antisense oligonucleotide targeting murine TTC39C (antisense eT*eG*eT*e[5mC]*eA*d[5mC]*dT*dG*d[5mC]*d[5mC]*dG*dT*d[5mC]*d[5mC]*dA*eA*eA*eG*e[5mC]*eA),43,70,84,88,96,500,97
ISIS 474607: 5-10-5 MOE gapmer antisense oligonucleotide targeting murine TTC39C (antisense eT*e[5mC]*eA*eA*eT*d[5mC]*dA*dT*dG*d[5mC]*dT*dG*d[5mC]*dA*d[5mC]*e[5mC]*eA*eG*e[5mC]*e[5mC]),40,65,85,92,94,500,98
ISIS 474609: 5-10-5 MOE gapmer antisense oligonucleotide targeting murine TTC39C (antisense e[5mC]*eG*eT*eA*eG*dT*dA*dG*d[5mC]*dA*d[5mC]*dT*dG*dG*dG*eA*e[5mC]*e[5mC]*eA*e[5mC]),48,56,71,90,97,600,95
ISIS 474610: 5-10-5 MOE gapmer antisense oligonucleotide targeting murine TTC39C (antisense eT*eT*eA*eA*eG*dA*dA*d[5mC]*dA*dA*dG*dT*dT*dG*dT*eG*e[5mC]*e[5mC]*e[5mC]*e[5mC]),10,28,38,65,71,2800,90
ISIS 474613: 5-10-5 MOE gapmer antisense oligonucleotide targeting murine TTC39C (antisense eT*eG*e[5mC]*eT*eT*dT*dA*dA*dT*d[5mC]*d[5mC]*dA*dA*d[5mC]*dG*eA*e[5mC]*eA*eG*eA),30,33,43,65,74,2100,90
ISIS 474615: 5-10-5 MOE gapmer antisense oligonucleotide targeting murine TTC39C (antisense eG*eT*eA*e[5mC]*eG*dA*dG*dT*dT*dA*d[5mC]*dT*d[5mC]*dT*dG*e[5mC]*e[5mC]*eG*eA*e[5mC]),33,43,82,92,98,900,96
ISIS 474617: 5-10-5 MOE gapmer antisense oligonucleotide targeting murine TTC39C (antisense eA*eG*eT*eT*e[5mC]*d[5mC]*d[5mC]*dT*dT*dA*dG*dG*dG*dA*dG*eG*e[5mC]*e[5mC]*eA*eG),43,45,80,86,94,800,94
ISIS 474629: 5-10-5 MOE gapmer antisense oligonucleotide targeting murine TTC39C (antisense eG*eA*eT*e[5mC]*eA*d[5mC]*dT*dG*d[5mC]*d[5mC]*dG*dT*d[5mC]*d[5mC]*dA*eA*eA*eG*e[5mC]*eA),16,28,42,48,66,3600,93
